How the values were obtained:
[1] = tested on: NIH-3T3; test: Cellular proliferation, NIH-3T3 fibroblastoid-type cells; assay type: cell-based; settings: Table 1; cells that do not express MYCN
Method: (§1) Cell viability was assessed by means of an ATP-Lite assay (Luminescence ATP Detection Assay System, PerkinElmer) and is reported as the ratio between the average signal of the treated wells compared to the average value of the wells of untreated control cells. The cells were processed following the instructions provided with the kit.
Moreover, the oligonucleotides having SEQ ID NO 1-23 were administered in lines of fibroblastoid-type cells (NIH-3T3 and Phoenix) and the results are shown in Table 1 (last two columns). […]

[2] = tested on: MYCN gene; test: QT-PCR, MYCN mRNA in RH30 cells; assay type: cell-based, human; settings: Table 6, PNA
Method: For the purpose of assessing the ability of the oligonucleotides of the present invention to modulate the expression of the target genes, their ability to reduce the quantity of messenger RNA was analyzed using the Real-Time PCR technique. For this purpose, use was made of 24-well plates, which were seeded with 5.0×10^4 cells with 0.3 ml of OPTI-MEM (GIBCO BRL) medium, 4% FBS and 2 mM L-glutammine (experiments in triplicate) per well. The cells were incubated for 24 hours at 37° C., in an atmosphere containing 5% CO2 to permit adherence to the base of the wells. Each oligonucleotide analyzed, except for the PNA oligonucleotides, was incubated beforehand with 2 μl of Lipofectamine 2000 (Invitrogen), with 0.3 mL of serum-free OPTI-MEM (GIBCO BRL) medium. For each well, the oligonucleotides were analyzed at the following final concentrations: • the antisense oligonucleotides siRNA and siRNA gapmer (i.e. the oligonucleotides containing one or more monomers of chemically modified nucleic acids at the 3' or 5' end, while in the central portion they have monomers of nucleic acids that have not been modified or have been modified at the level of the phosphodiester bond as a phosphorothioate bond) were used at 200 nM; • the antisense oligonucleotides containing phosphorothioate DNA monomers, the RNA antigene oligonucleotides (agRNA) and the oligonucleotides containing DNA monomers and LNA monomers were used at 10 μM; • the morpholino oligonucleotides were used at a concentration of 1 μM, and • the PNA oligonucleotides were administered at a concentration of 1 μM. The cells were treated with the oligonucleotides, adding FBS up to 4% 6 hours after administration of the same. After 24 hours the total RNA was extracted from each well and purified using the RNeasy Mini Kit (QIAGEN). Assays were performed on 8 cell lines obtained from 5 different human tumours which are correlated with MYCN expression, i.e.: • as a neuroblastoma model use was made of the cell lines Kelly, IMR-32 (where the MYCN gene is amplified and superexpressed) and SKNBE2c and LAN1 (where the MYCN gene is amplified and superexpressed and the p53 gene is mutated); • as a rabdomiosarcoma model use was made of the cell line RH30, where the MYCN gene is amplified and superexpressed; • as a Wilms' tumour model use was made of the cell line WiT49, where the MYCN gene is amplified and superexpressed; • as a retinoblastoma model use was made of the cell line Y79, where the MYCN gene is amplified and superexpressed; and • as a model of small cell lung cancer use was made of the cell line H69 where the MYCN gene is amplified and superexpressed. As a control, use was made of the same cell lines as listed above treated with sterile water instead of oligonucleotides. Each RNA sample was quantified (in duplicate) using a NanoDrop ND-1000 spectrophotometer (NanoDrop Technologies). The first strand of cDNA was produced using the cDNA Synthesis Kit for RT-PCR (Roche). For the cDNA synthesis reaction a total of 1 μg of RNA was used. For the real-time PCR, 10 ng of cDNA in a final volume of 20 μl was used with SYBR Green Master Mix 2× (Applied Biosystems) (3 identical experiments were conducted in triplicate). Two housekeeping genes were used as positive controls: GAPDH and beta-actin (ACTB). The conditions of the QT-PCR reaction were: 10 min at 95° C., 20 sec at 95° C., and 30 sec at 60° C., for 50 cycles. The PNAs having SEQ ID NO: 1-12 were also tested on different cell lines which overexpress MYCN (Kelly, SKNBE2c, RH30, […] 1 and H69). The results are shown in Table 6 and confirm the selectivity and specificity of the inhibition effect of the PNAs on the product of protein translation of the MYCN gene. Chimeric oligonucleotides comprising DNA monomers and LNA monomers and having the MYCN gene as their target were tested in vitro on alveolar rabdomyosarcoma cells (RH30). […]

[3] = tested on: H69; test: Cellular proliferation assay (ATP-Lite), H69 cells; assay type: cell-based, human; settings: Table 6
Method: For the purpose of assessing the gene modulation ability of the oligonucleotides of the present invention, the effect of their administration on cell viability was determined.
For this purpose 5×10^3 cells per well were seeded into 96-well cell culture plates (experiments conducted in triplicate) with 100 μl of OPTI-MEM (GIBCO BRL) medium containing 4% FBS and 2 mM of L-glutammine.
The PNA oligonucleotides were administered at different concentrations (1 μM-2.5 μM-5 μM-10 μM) in order to observe a dose-effect relationship.
The viability of the treated cells was determined at 48, 72, 96 and 168 hours after treatment.
as §1
The assays were performed on the same cell lines used to determine the levels of the MYCN gene messenger and listed in the paragraph: Treatments with Oligonucleotides—QT-PCR.
The PNAs having SEQ ID NO: 1-12 were also tested on different cell lines which overexpress MYCN (Kelly, SKNBE2c, RH30, WiT49, WERI-Rb1 1 and H69). The results are shown in Table 6 and confirm the selectivity and specificity of the inhibition effect of the PNAs on the product of protein translation of the MYCN gene.
The ability of the tested oligonucleotides to inhibit the messenger of the gene of interest was measured and the proliferative capacity of the cells following administration of the oligonucleotides was also assessed.

| Substance | NIH-3T3 prolif. (%) [1] | RH30 % mRNA [2] | H69 % cell prol. [3] |
| --- | --- | --- | --- |
| SEQ ID NO: 1: PNA ATGCCGGGCATGATCT against MYCN; subject of patent EP 1618195, control sequence used for comparison (all peptide nucleic acid (PNA)) [reference compound] | 100% | 39% | 77% |
| SEQ ID NO: 2: PNA antigene oligonucleotide GGGTGGATGCGGGGGG directed against MYCN (PNA backbone, chemistry not fully specified) | 100% | 74% | 61% |
| SEQ ID NO: 3: PNA antigene oligonucleotide GATGCGGGGGGCTCCT directed against MYCN (PNA backbone, chemistry not fully specified) | 100% | 65% | 63% |
| SEQ ID NO: 4: PNA antigene oligonucleotide GTCGGCGGGAGGTAAG directed against MYCN (PNA backbone, chemistry not fully specified) | 100% | 57% | 66% |
| SEQ ID NO: 5: PNA antigene oligonucleotide GCTGGGTGGATGCGGG directed against MYCN (PNA backbone, chemistry not fully specified) | 100% | 56% | 68% |
| SEQ ID NO: 6: PNA antigene oligonucleotide TGGACGCGCTGGGTGG directed against MYCN (PNA backbone, chemistry not fully specified) | 100% | 56% | 69% |
| SEQ ID NO: 7: PNA antigene oligonucleotide CGCGCTGGGTGGATGC directed against MYCN (all peptide nucleic acid (PNA)) | 100% | 55% | 67% |
| SEQ ID NO: 8: PNA antigene oligonucleotide GTCTGGACGCGCTGGG directed against MYCN (all peptide nucleic acid (PNA)) | 100% | 58% | 66% |
| SEQ ID NO: 9: PNA antigene oligonucleotide CCCTGCAGTCGGCGGG directed against MYCN (all peptide nucleic acid (PNA)) | 100% | 50% | 70% |
| SEQ ID NO: 10: PNA antigene oligonucleotide CGGCCGCGGGCCGCCA directed against MYCN (PNA backbone, chemistry not fully specified) | 100% | 29% | 79% |
| SEQ ID NO: 11: PNA antigene oligonucleotide GGGAACTGTGTTGGAG directed against MYCN (PNA backbone, chemistry not fully specified) | 100% | 31% | 78% |
| SEQ ID NO: 12: PNA antigene oligonucleotide TGTCTGGACGCGCTGG directed against MYCN (all peptide nucleic acid (PNA)) | 100% | 32% | 78% |

From patent US10752900B2, “Oligonucleotides for modulating gene expression and uses thereof” (BIOGENERA S.P.A., priority 2012, dated 2020)
